Each block holds one compound with its values, some of them ahead of it. Non-standard residues stand in square brackets, D forms with d. Residues, ends and D or L forms follow the SMILES beside them. *: point of attachment. Sta = CC(C)C[C@H](N)[C@@H](O)CC(=O)O; Isovaleryl = CC(C)CC(=O)*; Cbz = O=C(OCc1ccccc1)*; CH2F = FC*
Assays:
[1] = tested on: SK-Mel-103; test: Cell death by trypan blue exclusion, SK-Mel-103; format: cell-based, human
[2] = tested on: SK-Mel-147; test: Cell death by trypan blue exclusion, SK-Mel-147; format: cell-based, human; conditions: for effect of antioxidant on cell death by BO-110: BO-110 plus ROS scavenger
[3] = tested on: NOXA; test: NOXA protein levels by immunoblotting and densitometry; format: cell-based, human; conditions: SK-Mel-28 or SK-Mel-147 melanoma cells
[4] = tested on: MCL-1; test: MCL-1 protein levels by immunoblotting; format: cell-based, human; conditions: melanoma cells
Procedure: To determine changes in protein levels, 2×10^6 cells were treated as indicated and harvested at different times after treatment. Total cell lysates were subjected to electrophoresis in 10, 12 or 4-15% gradient SDS gels under reducing conditions, and subsequently transferred to IMMOBILON-P® (0.45 um pore size hydrophobic polyvinylidene fluoride, PVDF) membranes (Millipore, Bedford, Mass., USA). Protein bands were detected by the ECL system (GE Healthcare, Buckinghamshire, UK).
Secondary antibodies were either anti-mouse or anti-rabbit from GE Healthcare. Image J was used to quantify changes in proteins levels induced by the different treatments, considering untreated controls as reference for basal expression.
To assess similarities and differences between bortezomib and pIC (naked or complexed with PEI), melanoma cells were incubated with each of these compounds and extracts were collected at different time points after treatment to assess the levels of NOXA, MCL-1, and other Bcl-2 family members (Bcl-xL or Bcl-2). Results are shown in FIGS. 9A, 9B, 9C, 9D, 9E, and 9F.

[5] = tested on: MDA-5; test: MDA-5 proteolytic cleavage by immunoblotting; format: cell-based, human; conditions: SK-Mel-28 and SK-Mel-147 cell extracts
Procedure: This analysis was carried out by immunoblotting extracts from SK-Mel-28 and SK-Mel-147 cells treated with PEI, pIC or BO-110, after subjecting these extracts to electrophoresis. As a positive control for efficient induction of cell death bortezomib was used.

[6] = tested on: SK-Mel-103 cells; test: Confocal microscopy of autolysosomes, lysosomal activity and endosomes; format: cell-based, human
From the text: An eGFP-LC3 fusion cloned into the pCNA expression vector was a gift from Gabriel Nidiez (University of Michigan Cancer Center). eGFP-LC3 and the fragments eGFP-Rab7wt, eGFP-Rab7 T22N, eGFP-Rab5wt, eGFP-Cherry-LC3 and Cherry-LC3 were cloned into the pLVO-puro lentiviral vector for stable gene transfer. Melanoma derived cells (i.e., SK-Mel-103) were infected with pLVO-eGFP-LC3 and selected with puromycin. GFP-LC3-associated fluorescence emission was imaged using a LEICA™ AF6000 fluorescence microscope and images were analyzed by LAS AF V1.9 (Leica, Solms, Germany). […] Images were analyzed by LCS (Leica, Solms, Germany). […] Co-localization images were analyzed with LAS AF V1.9 (Leica, Solms, Germany). […]
To independently monitor lysosomal activity during BO-110 treatment, cells were tested for the ability to process DQ-BSA (a derivative of BSA whose green fluorescence is quenched unless cleaved by proteolytic enzymes). […] Note that DQ-BSA emission was detected at the lysosomes, as indicated by colocalization with LYSOTRACKER® Red, a dye whose cell permeability is pH dependent and emits red fluorescence when incorporated into functional lysosomes acids). […]
Having determined that autophagosomes fuse to active lysosomes in response to BO-110, we assessed whether these organelles interacted with or were recruited to endosomes.

[7] = tested on: SK-Mel-103 melanoma cells; test: GFP-LC3 foci fluorescence analysis of autophagy; format: cell-based, human; conditions: with BO-110 treatment, 12 h
Procedure: An eGFP-LC3 fusion cloned into the pCNA expression vector was a gift from Gabriel Nidiez (University of Michigan Cancer Center). eGFP-LC3 and the fragments eGFP-Rab7wt, eGFP-Rab7 T22N, eGFP-Rab5wt, eGFP-Cherry-LC3 and Cherry-LC3 were cloned into the pLVO-puro lentiviral vector for stable gene transfer. […] GFP-LC3-associated fluorescence emission was imaged using a LEICA™ AF6000 fluorescence microscope and images were analyzed by LAS AF V1.9 (Leica, Solms, Germany). For confocal real time microscopy, we used a LEICA™ TCS-SP2-AOBS-UV ultra-spectral microscope coupled to a CO2 and temperature-controlled incubation chamber. Images were analyzed by LCS (Leica, Solms, Germany). […] Co-localization images were analyzed with LAS AF V1.9 (Leica, Solms, Germany).
To address the role of autophagy in the response of melanoma to drugs, a discriminative analysis based in GFP-LC3 was used to screen commercially available chemotherapeutic drugs and immunomodulators. Melanoma cells were stably transfected with lentiviral vectors expressing derivatives of the autophagosomal LC3 marker with GFP, such as pLVO-eGFP-LC3.
Subsequent validation studies were performed on a panel of human cell lines of diverse genetic background (see below).

[8] = tested on: melanoma cell lines (SK-Mel-19, -28, -103, -147, and B16); test: Cell death by trypan blue exclusion, melanoma cell lines; format: cell-based, human and murine; conditions: naked pIC versus PEI-complexed pIC
Procedure: (§1) Cell viability assays in response to drug treatments were done after seeding melanocytes and melanoma cells at least 12 hours before drug treatment. The percentage of cell death at the indicated times and treatment concentrations was estimated by standard trypan blue exclusion assays as previously described (Wolter et al., 2007; Fernández et al., 2005).
With these lines, tests were conducted similar to those described in Example 1 for SK-Mel-103 cell line, to verify the sensitivity of each of these cells to pIC and PEI as independent agents or used in combination.

[9] = tested on: IFIT-1; test: IFIT-1 mRNA by quantitative PCR, B16 melanoma cells; format: cell-based, mouse
Procedure: (§2) Human interferon alpha was measured in culture supernatants by enzyme-linked immunoabsorbent assay (ELISA). The human IFN-α ELISA Kit and recombinant hIFN-α were purchased from PBL Interferon Source (Piscataway, N.Y.) and used according to the manufacturer's protocol. IFN-α expression level was measured from bone-marrow-derived macrophages (BMDMs) and B16 melanoma cells by real-time PCR. BMDMs were prepared, plated and treated as previously described (Celada et al., 1984). Real-time quantitative PCR analysis of IFIT-1 RNA transcripts was performed using TAQMAN® primer and probes obtained from Applied Biosystems on an Applied Biosystems 7700 sequence detector after normalization with […].
(§3) pIC is a classical inducer of IFN-driven cellular immunity (Wenzel et al., 2008). […] To assess this possibility, B16 melanoma cells and macrophages were tested for their ability to secrete and respond to IFN-α. […] This is expected, as these cells can efficiently sense viral dsRNA.

[10] = tested on: IFIT-1; test: IFIT-1 mRNA by quantitative PCR, bone-marrow-derived macrophages; format: cell-based
Procedure: as §2, §3

[11] = tested on: SK-Mel-103 cells; test: Ultrastructural analysis by transmission electron microscopy; format: cell-based, human; conditions: 5-12 h after treatment
Procedure: For transmission electron microscopy (TEM), the indicated cell populations were rinsed with […] buffer, pH 7.5 and fixed in 2.5% glutaraldehyde for 1.5 h, and subsequently dehydrated and embedded in Spurr's resin. Then, the block was sectioned at 60-100 nm ultra thin sections and picked up on copper grids. For routine analysis ultrathin sections were stained with 2% uranyl acetate and lead citrate. Electron micrographs were acquired with a Philips CM-100 transmission electron microscope (FEI, Hillsbrough, Oreg.) and a KODAK™ 1.6 MEGAPLUS™ digital camera.
The GFP-LC3 focal staining in cells treated with BO-110 described in the previous paragraph is consistent with the formation of autophagosomes. However, to rule out possible unspecific aggregations of ectopically expressed GFP-LC3 (Klionsky et al., 2008), the response was analyzed independently by electron microscopy (FIG. 1D).

[12] = tested on: melanoma; conditions: naked pIC, clinical studies (Robinson et al., 1976); cited from earlier work
[13] = tested on: SK-Mel-28; test: Cell death by trypan blue exclusion, SK-Mel-28; format: cell-based, human; conditions: doxorubicin 0.5 μg/ml, 30 h
Procedure: as §1

[14] = tested on: SK-Mel-19; test: Cell death by trypan blue exclusion, SK-Mel-19; format: cell-based, human; conditions: doxorubicin 0.5 μg/ml, 30 h
Procedure: as §1

[15] = 20 hours after treatment with BO-110

Compound: CCOC(=O)[C@H]1O[C@@H]1C(=O)N[C@@H](CC(C)C)C(=O)NCCC(C)C [E64d]
- reduction of the extent of cell death by BO-110 [1, 15]: 50%

Compound: Cc1c(C)c2c(c(C)c1O)CCC(C)(C(=O)O)O2 (stereo not drawn) [TROLOX™]
- effect of antioxidant on cell death by BO-110 [2]: no significant effects

- induction of MDA-5 processing (30 kD band) [5]: no effect on MDA-5 levels or processing
Compound: CC(C)C[C@H](NC(=O)[C@H](Cc1ccccc1)NC(=O)c1cnccn1)B(O)O [bortezomib, Bortezomib]
- NOXA induction (in words) [3]: activates NOXA potently
- MCL-1 levels [4]: induces a simultaneous accumulation of MCL-1

Compound: O=S(=O)([O-])c1cc(O)c(O)c(S(=O)(=O)[O-])c1.[Na+].[Na+] [TIRON™]
- effect of antioxidant on cell death by BO-110 [2]: no significant effects

Compound: vitamin E
- effect of antioxidant on cell death by BO-110 [2]: no significant effects

Compound: COC(=O)C[C@H](NC(=O)[C@H](C)NC(=O)[C@@H](NC(=O)OCc1ccccc1)C(C)C)C(=O)CF [z-VAD-fmk] (Cbz-Val-Ala-Asp(OMe)-CH2F)
- inhibition of BO-110 killing ([2]; SK-Mel-147, BO-110 plus pan-caspase inhibitor): 70%

Compound: CCN(CC)CCCC(C)Nc1ccnc2cc(Cl)ccc12 (stereo not drawn) [chloroquine, Chloroquine]
- inhibitory effect on cell death triggered by BO-110 [1, 15]: blocked melanoma cell death triggered by BO-110
- lysosomal proteolysis: DQ-BSA cleavage [6]: minimum of fluorescence emission due to DQ-BSA
- effect of autophagy inhibitor on GFP-LC3 foci / autophagosomes induced by BO-110 [7]: autophagosomes accumulated

Compound: Cn1cnc(N)c2ncnc1-2 [3-MA, 3-methyladenine]
- effect of autophagy inhibitor on GFP-LC3 foci / autophagosomes induced by BO-110 [7]: blocked GFP-LC3 foci formation by BO-110

- induction of MDA-5 processing (30 kD band) [5]: significantly lower levels
Compound: polyinosine-polycytidylic acid [pIC]
- reduction of antimelanoma activity of pIC when PEI was not included [8]: 70-80%
- induction of IFN target IFIT-1 [9]: unable to induce IFIT-1
- NOXA induction (in words) [3]: failed to induce NOXA consistently or in a sustained manner
- induction of IFN target IFIT-1 [10]: PEI was dispensable for pIC-mediated induction of IFN targets
- autophagosome formation (electron microscopy) [11]: minimal activity as inducer of autophagy
- antitumoral effect for melanoma [12]: absence of antitumoral effect for melanoma
- induction of IFN [12]: low induction of IFN
- stability [12]: low stability

Compound: COc1cccc2c1C(=O)c1c(O)c3c(c(O)c1C2=O)C[C@@](O)(C(=O)CO)C[C@@H]3O[C@H]1C[C@H](N)[C@H](O)[C@H](C)O1 [DOX, doxorubicin]
- DOX: response to doxorubicin, percentage of cell death ([1]; SK-Mel-103, doxorubicin 0.5 μg/ml, 30 h): − (<30%)
- DOX: response to doxorubicin, percentage of cell death [13]: − (<30%)
- DOX: response to doxorubicin, percentage of cell death ([2]; SK-Mel-147, doxorubicin 0.5 μg/ml, 30 h): − (<30%)
- DOX: response to doxorubicin, percentage of cell death [14]: ++ (100-70)

Compound: IFN-α
- effect on melanoma cell viability ([1]; high doses, 10 times over levels secreted after BO-110, 24 h): unable to affect melanoma cell viability

Compound: CC(C)CC(=O)N[C@H](C(=O)N[C@H](C(=O)N[C@@H](CC(C)C)[C@@H](O)CC(=O)N[C@@H](C)C(=O)N[C@@H](CC(C)C)[C@@H](O)CC(=O)O)C(C)C)C(C)C [pepstatin A] (Isovaleryl-VV[Sta]A[Sta]-OH)
- reduction of the extent of cell death by BO-110 [1, 15]: 50%
